EC50 and potency data for 13 compounds are collected here from US12617783B2, “Heterocyclic GLP-1R agonists” (BIOMEA FUSION, INC., priority 2024, dated 2026).

Bounds are passed on as bounds.

One assay deals with T1, human GLP-1R (Homo sapiens, UniProt P43220).
T1 construct: host or cells: HEK293
T1 sequence (P43220 24-463): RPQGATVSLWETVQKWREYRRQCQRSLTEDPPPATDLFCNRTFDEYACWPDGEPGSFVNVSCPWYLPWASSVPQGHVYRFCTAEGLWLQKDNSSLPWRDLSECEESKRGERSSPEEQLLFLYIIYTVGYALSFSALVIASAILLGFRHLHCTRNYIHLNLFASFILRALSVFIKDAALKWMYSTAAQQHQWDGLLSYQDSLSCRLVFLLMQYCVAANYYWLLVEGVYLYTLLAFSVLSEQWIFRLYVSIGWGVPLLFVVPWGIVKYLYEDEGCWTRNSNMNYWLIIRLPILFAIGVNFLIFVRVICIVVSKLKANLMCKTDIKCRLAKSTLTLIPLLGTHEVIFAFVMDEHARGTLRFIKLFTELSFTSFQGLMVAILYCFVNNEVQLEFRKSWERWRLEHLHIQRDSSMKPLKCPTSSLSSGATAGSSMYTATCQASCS
The assay is described as follows: GLP-1R cAMP assay (Example B1a, HTRF, 30 min at room temperature). Format: cell-based. The following applies: cAMP accumulation in HEK293 expressing human GLP-1R, no BETP, 30 min room temperature (Method B1a, compounds ID 1-609), Table 1; read-out: EC50. Summed up:
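Competitive HTRF read-out of cAMP after 30 min room-temperature stimulation, BETP absent, of human GLP-1R-HEK293 cells (1,000/well) in HEPES buffer with 500 μM IBMX and 0.1% BSA. Activation normalised to GLP-1(7-37) positive control. EC50 from 4-parameter non-linear regression.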
Background: Changes in cAMP serve as a functional read-out for many G protein-coupled receptors.
A word on the EC50: it is the concentration giving half of the maximal effect. As to `Cc1cc(-n2nc3c(c2-n2ccn(-c4ccc(C(=O)N(C)C5CC5)c(F)c4F)c2=O)[C@@H]2CCC[C@H](C3)N2C(=O)c2cc3cc([C@H]4CCOC(C)(C)C4)ccc3n2[C@@]2(c3noc(=O)[nH]3)C[C@@H]2C)cc(C)c1F` [Compound 547, N-cyclopropyl-4-[3-[(1S,8R)-12-[5-[(4S)-2,2-dimethyltetrahydropyran-4-yl]-1-[(1S,2S)-2-methyl-1-(5-oxo-4H-1,2,4-oxadiazol-3-yl)cyclopropyl]indole-2-carbonyl]-4-(4-fluoro-3,5-dimethyl-phenyl)-4,5,12-triazatricyclo[6.3.1.02,6]dodeca-2,5-dien-3-yl]-2-oxo-imidazol-1-yl]-2,3-difluoro-N-methyl-benzamide], the EC50 was at least 10000 nM. Take `Cc1cc(-n2nc3c(c2-n2ccn(-c4ccc5c(cnn5C)c4F)c2=O)[C@@H]2CC[C@H](C3)N2C(=O)c2cc3cc([C@H]4CCOC5(CC5)C4)ccc3n2[C@]2(c3noc(=O)[nH]3)C[C@@H]2C)cc(C)c1F` [Compound 528, 3-[(1R,2S)-1-[2-[(1S,8R)-4-(4-fluoro-3,5-dimethyl-phenyl)-3-[3-(4-fluoro-1-methyl-indazol-5-yl)-2-oxo-imidazol-1-yl]-4,5,11-triazatricyclo[6.2.1.02,6]undeca-2,5-diene-11-carbonyl]-5-[(7S)-4-oxaspiro[2.5]octan-7-yl]indol-1-yl]-2-methyl-cyclopropyl]-4H-1,2,4-oxadiazol-5-one]: the EC50 was determined as 1440 nM. Still for that read-out and setting: the result for `Cc1cc(-n2nc3c(c2-n2ccn(-c4ccc5c(cnn5C)c4F)c2=O)C2COCC(C3)N2C(=O)c2cc3cc([C@H]4CCOC(C)(C)C4)ccc3n2[C@@]2(c3noc(=O)[nH]3)C[C@@H]2C)cc(C)c1F` (stereo partly drawn) [Compound 116, 3-((1S,2S)-1-(5-((S)-2,2-dimethyltetrahydro-2H-pyran-4-yl)-2-(3-(3-(4-fluoro-1-methyl-1H-indazol-5-yl)-2-oxo-2,3-dihydro-1H-imidazol-1-yl)-2-(4-fluoro-3,5-dimethylphenyl)-2,4,5,7,8,9-hexahydro-4,8-epiminooxocino [5,4-c]pyrazole-10-carbonyl)-1H-indol-1-yl)-2-methylcyclopropyl)-1,2,4-oxadiazol-5(4H)-one] reads 174 nM. Still for that read-out and setting: the same measure for `Cc1cc(-n2nc3c(c2-n2ccn(-c4ccc5c(cnn5C)c4F)c2=O)[C@@H]2CC[C@H](C3)N2C(=O)c2c(C)c3cc([C@H]4CCOC(C)(C)C4)ccc3n2[C@@]2(c3noc(=O)[nH]3)C[C@@H]2C)cc(C)c1F` [Compound 532, 3-[(1S,2S)-1-[5-[(4S)-2,2-dimethyltetrahydropyran-4-yl]-2-[(1S,8R)-4-(4-fluoro-3,5-dimethyl-phenyl)-3-[3-(4-fluoro-1-methyl-indazol-5-yl)-2-oxo-imidazol-1-yl]-4,5,11-triazatricyclo[6.2.1.02,6]undeca-2,5-diene-11-carbonyl]-3-methyl-indol-1-yl]-2-methyl-cyclopropyl]-4H-1,2,4-oxadiazol-5-one]: 672 nM; for `Cc1cc(-n2nc3c(c2-n2ccn(-c4ccc5c(cnn5C)c4Cl)c2=O)[C@@H]2CC[C@H](C3)N2C(=O)c2cc3cc([C@H]4CCOC(C)(C)C4)ccc3n2[C@@]2(c3noc(=O)[nH]3)C[C@@H]2C)cc(C)c1F` [Compound 308, 3-((1S,2S)-1-(2-((4S,7R)-3-(3-(4-chloro-1-methyl-1H-indazol-5-yl)-2-oxo-2,3-dihydro-1H-imidazol-1-yl)-2-(4-fluoro-3,5-dimethylphenyl)-2,4,5,6,7,8-hexahydro-4,7-epiminocyclohepta [c]pyrazole-9-carbonyl)-5-((S)-2,2-dimethyltetrahydro-2H-pyran-4-yl)-1H-indol-1-yl)-2-methylcyclopropyl)-1,2,4-oxadiazol-5(4H)-one]: 197 nM. As to `Cc1cc(-n2nc3c(c2-n2ccn(-c4ccc5c(cnn5C)c4F)c2=O)[C@@H]2CC[C@H](C3)N2C(=O)c2cc3sc(C4CCOC(C)(C)C4)nc3n2[C@@]2(c3noc(=O)[nH]3)C[C@@H]2C)cc(C)c1F` (stereo partly drawn) [Compound 245, 3-[(1S,2S)-1-[2-(2,2-dimethyltetrahydropyran-4-yl)-5-[(1S,8R)-4-(4-fluoro-3,5-dimethyl-phenyl)-3-[3-(4-fluoro-1-methyl-indazol-5-yl)-2-oxo-imidazol-1-yl]-4,5,11-triazatricyclo[6.2.1.02,6]undeca-2,5-diene-11-carbonyl]pyrrolo[2,3-d]thiazol-4-yl]-2-methyl-cyclopropyl]-4H-1,2,4-oxadiazol-5-one], the concentration giving a half-maximal response (EC50) was 5070 nM. For `Cc1cc(-n2nc3c(c2-n2ccn(-c4ccc5c(cnn5C)c4F)c2=O)[C@@H]2CCC[C@H](C3)N2S(=O)(=O)c2cc3cc([C@H]4CCOC(C)(C)C4)ccc3n2C2(c3noc(=O)[nH]3)C[C@@H]2C)cc(C)c1F` (stereo partly drawn) [Compound 527, 3-[(2S)-1-[5-[(4S)-2,2-dimethyltetrahydropyran-4-yl]-2-[[(1S,8R)-4-(4-fluoro-3,5-dimethyl-phenyl)-3-[3-(4-fluoro-1-methyl-indazol-5-yl)-2-oxo-imidazol-1-yl]-4,5,12-triazatricyclo[6.3.1.02,6]dodeca-2,5-dien-12-yl]sulfonyl]indol-1-yl]-2-methyl-cyclopropyl]-4H-1,2,4-oxadiazol-5-one], the EC50 turned out to be 975 nM. For `Cc1cc(-n2nc3c(c2-n2ccn(-c4ccc5c(cnn5C)c4F)c2=O)[C@@H]2CC[C@H](C3)N2C(=O)c2cc3cn(C4CCOC(C)(C)C4)c(=O)cc3n2[C@@]2(c3noc(=O)[nH]3)C[C@@H]2C)cc(C)c1F` (stereo partly drawn) [Compound 324, 3-[(1S,2S)-1-[5-(2,2-dimethyltetrahydropyran-4-yl)-2-[(1S,8R)-4-(4-fluoro-3,5-dimethyl-phenyl)-3-[3-(4-fluoro-1-methyl-indazol-5-yl)-2-oxo-imidazol-1-yl]-4,5,11-triazatricyclo[6.2.1.02,6]undeca-2,5-diene-11-carbonyl]-6-oxo-pyrrolo[3,2-c]pyridin-1-yl]-2-methyl-cyclopropyl]-4H-1,2,4-oxadiazol-5-one], the half-maximal effective concentration (EC50) turned out to be 264 nM. The same measure, in the same setting: the same measure for `Cc1cc(-n2nc3c(c2-n2ccn(-c4ccc5c(cnn5C)c4F)c2=O)[C@@H]2CC[C@H](C3)N2C(=O)c2cc3cc([C@@H]4CCOC(C)(C)C4)ncc3n2[C@@]2(c3noc(=O)[nH]3)C[C@@H]2C)cc(C)c1F` [Compound 212, 3-((1S,2S)-1-(5-((R)-2,2-dimethyltetrahydro-2H-pyran-4-yl)-2-((4S,7R)-3-(3-(4-fluoro-1-methyl-1H-indazol-5-yl)-2-oxo-2,3-dihydro-1H-imidazol-1-yl)-2-(4-fluoro-3,5-dimethylphenyl)-2,4,5,6,7,8-hexahydro-4,7-epiminocyclohepta [c]pyrazole-9-carbonyl)-1H-pyrrolo[2,3-c]pyridin-1-yl)-2-methylcyclopropyl)-1,2,4-oxadiazol-5 (4H)-one]: 697 nM. The same measure, in the same setting: the same measure for `Cc1cc(-n2nc3c(c2-n2ccn(-c4cc(F)c5c(cnn5C)c4F)c2=O)[C@@H]2CC[C@H](C3)N2C(=O)c2cc3cc([C@H]4CCOC(C)(C)C4)ccc3n2[C@@]2(c3noc(=O)[nH]3)C[C@@H]2C)cc(C)c1F` [Compound 235, 3-[(1S,2S)-1-[2-[(1S,8R)-3-[3-(4,7-difluoro-1-methyl-indazol-5-yl)-2-oxo-imidazol-1-yl]-4-(4-fluoro-3,5-dimethyl-phenyl)-4,5,11-triazatricyclo[6.2.1.02,6]undeca-2,5-diene-11-carbonyl]-5-[(4S)-2,2-dimethyltetrahydropyran-4-yl]indol-1-yl]-2-methyl-cyclopropyl]-4H-1,2,4-oxadiazol-5-one]: 459 nM; for `Cc1cc(-n2nc3c(c2-n2ccn(-c4ccc5c(cnn5C)c4C)c2=O)[C@@H]2COC[C@H](C3)N2C(=O)c2cc3cc([C@H]4CCOC(C)(C)C4)ccc3n2[C@@]2(c3noc(=O)[nH]3)C[C@@H]2C)cc(C)c1F` [Compound 228, 3-[(1S,2S)-1-[2-[(1R,8S)-3-[3-(1,4-dimethylindazol-5-yl)-2-oxo-imidazol-1-yl]-4-(4-fluoro-3,5-dimethyl-phenyl)-10-oxa-4,5,12-triazatricyclo[6.3.1.02,6]dodeca-2,5-diene-12-carbonyl]-5-[(4S)-2,2-dimethyltetrahydropyran-4-yl]indol-1-yl]-2-methyl-cyclopropyl]-4H-1,2,4-oxadiazol-5-one]: 402 nM. On to `Cc1cc(-n2nc3c(c2N2CCN(c4ccc5c(cnn5C)c4F)C(=O)C2=O)[C@H](C)N(C(=O)c2cc4cc([C@H]5CCOC(C)(C)C5)ccc4n2[C@@]2(c4noc(=O)[nH]4)C[C@@H]2C)CC3)cc(C)c1F` [Compound 28, 1-((S)-5-(5-((S)-2,2-dimethyltetrahydro-2H-pyran-4-yl)-1-((1S,2S)-2-methyl-1-(5-oxo-4,5-dihydro-1,2,4-oxadiazol-3-yl)cyclopropyl)-1H-indole-2-carbonyl)-2-(4-fluoro-3,5-dimethylphenyl)-4-methyl-4,5,6,7-tetrahydro-2H-pyrazolo[4,3-c]pyridin-3-yl)-4-(4-fluoro-1-methyl-1H-indazol-5-yl) piperazine-2,3-dione], for which the concentration giving a half-maximal response (EC50) is over 10000 nM. With `Cc1cc(-n2nc3c(c2-n2ccn(-c4ccc5c(cnn5C)c4F)c2=O)[C@H]2CCC[C@@H](C3)N2C(=O)c2cc3cc([C@H]4CCOC(C)(C)C4)ccc3n2[C@@]2(c3noc(=O)[nH]3)C[C@@H]2C)cc(C)c1F` [Compound 430, 3-((1S,2S)-1-(5-((S)-2,2-dimethyltetrahydro-2H-pyran-4-yl)-2-((4R,8S)-3-(3-(4-fluoro-1-methyl-1H-indazol-5-yl)-2-oxo-2,3-dihydro-1H-imidazol-1-yl)-2-(4-fluoro-3,5-dimethylphenyl)-4,5,6,7,8,9-hexahydro-2H-4,8-epiminocycloocta [c]pyrazole-10-carbonyl)-1H-indol-1-yl)-2-methylcyclopropyl)-1,2,4-oxadiazol-5 (4H)-one], the EC50 was at least 10000 nM.

The same assay, now with this note: text to Table 1d, bridge atoms configured out of the plane or toward the reader.
Consider `Cc1cc(-n2nc3c(c2-n2ccn(-c4ccc5c(cnn5C)c4F)c2=O)[C@H]2CCC[C@@H](C3)N2C(=O)c2cc3cc([C@H]4CCOC(C)(C)C4)ccc3n2[C@@]2(c3noc(=O)[nH]3)C[C@@H]2C)cc(C)c1F` [Compound 430, 3-((1S,2S)-1-(5-((S)-2,2-dimethyltetrahydro-2H-pyran-4-yl)-2-((4R,8S)-3-(3-(4-fluoro-1-methyl-1H-indazol-5-yl)-2-oxo-2,3-dihydro-1H-imidazol-1-yl)-2-(4-fluoro-3,5-dimethylphenyl)-4,5,6,7,8,9-hexahydro-2H-4,8-epiminocycloocta [c]pyrazole-10-carbonyl)-1H-indol-1-yl)-2-methylcyclopropyl)-1,2,4-oxadiazol-5 (4H)-one], for which the potency entry is “little or no potency”.
